In ChEMBL document CHEMBL1129904, “3-chloro-4-carboxamido-6-arylpyridazines as a non-peptide class of interleukin-1 converting enzyme inhibitor” (Bioorg Med Chem Lett, 1997) one finds IC50 and k obs / 1 data, which are given here for 25 molecules.

One assay deals with T1, Caspase-1 (Homo sapiens, UniProt P29466).
T1 sequence (P29466 whole entry): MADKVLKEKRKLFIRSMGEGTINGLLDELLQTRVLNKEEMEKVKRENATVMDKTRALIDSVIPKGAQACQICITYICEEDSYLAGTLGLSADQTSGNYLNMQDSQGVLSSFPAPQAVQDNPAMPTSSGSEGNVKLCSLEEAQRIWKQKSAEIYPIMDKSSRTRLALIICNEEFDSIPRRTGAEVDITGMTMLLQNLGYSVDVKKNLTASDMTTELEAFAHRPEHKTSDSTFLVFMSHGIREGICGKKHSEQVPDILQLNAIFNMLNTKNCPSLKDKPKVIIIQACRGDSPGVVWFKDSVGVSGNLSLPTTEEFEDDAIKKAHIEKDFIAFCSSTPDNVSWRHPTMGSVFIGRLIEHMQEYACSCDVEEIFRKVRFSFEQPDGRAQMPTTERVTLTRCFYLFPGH
Kind of assay: Antiinflammatory activity measured as the concentration required to inhibit IL-1 beta converting enzyme.

The target in the next assay is T2, Caspase-1 (Homo sapiens) (UniProt P29466).
T2 sequence (whole entry): T1 sequence (P29466 whole entry)
Kind of assay: Inactivation of IL-1 beta converting enzyme.

The IC50 is the concentration needed to halve the response being measured. High values mean weaker potency in that assay, low ones greater potency in that assay. At Caspase-1, `NC(=O)c1cc(-c2ccc(C(F)(F)F)cc2)nnc1Cl` showed an IC50 of 5 µM. This molecule also gave a k obs / 1 on Caspase-1 (Homo sapiens) of 40 M⁻¹ s⁻¹.

The molecule `CCOC(=O)c1cc(-c2ccncc2)nnc1Cl` yielded a 50% inhibitory concentration (IC50) against Caspase-1 of 13 µM. For the same molecule, the k obs / 1 on Caspase-1 (Homo sapiens) is 10 M⁻¹ s⁻¹.

On to `N#Cc1cc(-c2ccncc2)nnc1Cl`, for which the IC50 at Caspase-1 amounted to 110 µM.

On to `CNC(=O)c1cc(Cl)nnc1Cl`, for which, on Caspase-1, the 50% inhibitory concentration (IC50) was above 250 µM.

At Caspase-1, `NC(=O)c1cc(-c2ccc(F)c(Cl)c2)nnc1Cl` came in with a concentration for half-maximal inhibition (IC50) of 5.5 µM. On Caspase-1 (Homo sapiens), this molecule showed a k obs / 1 of 45 M⁻¹ s⁻¹.

`CSc1nnc(-c2ccncc2)cc1C(N)=O` showed an IC50 against Caspase-1 above 250 µM.

Molecule `COc1nnc(-c2ccncc2)cc1C(N)=O` had a concentration for half-maximal inhibition (IC50) at Caspase-1 above 250 µM.

For the molecule `NC(=O)c1cc(-c2ccc([N+](=O)[O-])cc2)nnc1Cl`, the IC50 on Caspase-1 was 0.7 µM.

As to `NC(=O)c1cnnc(-c2ccncc2)c1`, at Caspase-1, the IC50 was above 250 µM.

`NC(=O)c1cc(-c2ccc(NS(=O)(=O)c3ccccc3)cc2)nnc1Cl` came in with an IC50 on Caspase-1 of 18 µM.

Turning to `O=C(NCc1ccccc1)c1cc(-c2ccncc2)nnc1Cl`, the IC50 against Caspase-1 was 4 µM. For the same molecule, the k obs / 1 on Caspase-1 (Homo sapiens) worked out at 50 M⁻¹ s⁻¹.

As to `O=C(NCc1ccc(Cl)cc1Cl)c1cc(-c2ccncc2)nnc1Cl`, on Caspase-1, the half-maximal inhibitory concentration (IC50) was determined as 2 µM. At Caspase-1 (Homo sapiens), this molecule displayed a k obs / 1 of 140 M⁻¹ s⁻¹.

With `CNC(=O)c1cc(-c2ccncc2)nnc1Cl`, the IC50 on Caspase-1 was found to be 10 µM. On Caspase-1 (Homo sapiens), this molecule registered a k obs / 1 of 25 M⁻¹ s⁻¹.

As to `NC(=O)c1cc(-c2ccccc2)nnc1Cl`, the IC50 against Caspase-1 worked out at 57 µM. The k obs / 1 at Caspase-1 (Homo sapiens) is below 5 M⁻¹ s⁻¹.

Consider `CS(=O)(=O)c1c(F)cc(-c2cc(C(N)=O)c(Cl)nn2)cc1F`, for which the half-inhibitory concentration (IC50) on Caspase-1 worked out at 0.3 µM. At Caspase-1 (Homo sapiens), this molecule yielded a k obs / 1 of 355 M⁻¹ s⁻¹.

`N#Cc1ccc(-c2cc(C(N)=O)c(Cl)nn2)cc1Cl`: inhibition against Caspase-1 was half-maximal at 0.5 µM (IC50). The molecule further returned a k obs / 1 on Caspase-1 (Homo sapiens) of 225 M⁻¹ s⁻¹.

Regarding `NC(=O)c1cc(-c2ccncc2)cnc1Cl`, the IC50 against Caspase-1 was above 250 µM.

As to `N#Cc1ccc(-c2cc(C(N)=O)c(Cl)nn2)cc1`, the IC50 on Caspase-1 was 1.5 µM.

Molecule `CCOC(=O)CNC(=O)c1cc(-c2ccncc2)nnc1Cl` came in with a concentration for half-maximal inhibition (IC50) against Caspase-1 of 2 µM.

For the molecule `CN(C)C(=O)c1cc(-c2ccncc2)nnc1Cl`, the IC50 against Caspase-1 was above 250 µM.

In turn, `Cc1c(-c2ccc(Cl)cc2)nnc(Cl)c1C(N)=O` returned a half-inhibitory concentration (IC50) at Caspase-1 above 250 µM.

Regarding `NC(=O)c1cc(-c2ccc(Br)cc2)nnc1Cl`, half-maximal inhibition against Caspase-1 (IC50) required 5 µM.

The molecule `NC(=O)c1cc(-c2ccc(Cl)cc2)nnc1Cl` displayed an IC50 at Caspase-1 of 5 µM.

In the case of `COc1ccc(-c2cc(C(N)=O)c(Cl)nn2)cc1`, 66 µM corresponded to half-maximal inhibition at Caspase-1 (IC50). In addition, the k obs / 1 at Caspase-1 (Homo sapiens) is below 5 M⁻¹ s⁻¹.

At Caspase-1, `NC(=O)c1cc(-c2ccncc2)nnc1Cl` yielded an IC50 of 3 µM. Besides, the k obs / 1 on Caspase-1 (Homo sapiens) came to 70 M⁻¹ s⁻¹.
